According to patent publication US20140073602A9, “NITRIC OXIDE DELIVERING HYDROXYALKYL STARCH DERIVATIVES” (FRESENIUS KABI DEUTSCHLAND GMBH, priority 2010, published 2014):

Test system: phenylephrine-precontracted aortic rings from rats
Experiment: Vasodilatory influence in isolated rat aortic ring preparations
Conditions: first set; 1 microM
Description: The aim of the experiments was to test for the vasodilatory influence of SNO-HES in isolated rat aortic ring preparations. Isolated aortic rings from rats were precontracted by phenylephrine. SNO-HES-induced relaxations were determined after defined incubation periods. In order to completely relax the aorta and to define the 100% relaxation level, papaverine was applied at the end of an experiment. Two sets of experiments were performed:
Aortic ring preparations from adult rats (male, Lewis, 278-307 g; Janvier, St Berthevin Cedex, France) were used to perform the experiments.
All HES derivatives were supplied by Fresenius-Kabi Deutschland GmbH. SNO-HES derivatives CNO1 and CNO8 (both prepared according to GP3, table 8) were tested alongside with their precursor SH-HES (D31, prepared according to GP2.1 and GP2.2, table 6) and the unmodified HES (HES17, table 1). The first set of experiments was performed with SNO-HES derivative CNO1, the second set with CNO8.
Physiological solution contained (in mM) NaCl 120, KCl 5.5, MgSO4 1.2, KH2PO4 1.2, CaCl2 2.5, NaHCO3 25 and glucose 11. The solution was maintained at 37° C. and gassed with carbogen (95% O2+5% CO2 (v/v)). Phenylephrine (batch 050M1663) and papaverine (batch 010M1565) purchased from Sigma (Munich, Germany) were dissolved in distilled water to prepare stocks of 1 mM and 50 mM, respectively. […]

## N[C@@H](CCC(=O)N[C@@H](CSN=O)C(=O)NCC(=O)O)C(=O)O [GSNO, S-nitrosogluthatione]
  Relaxation of phenylephrine-contracted aortic rings (in words): immediately and completely relaxed
